According to paper PMC4310094, “FXR antagonism of NSAIDs contributes to drug-induced liver injury identified by systems pharmacology approach” (Scientific Reports, 2015):

Columns and labels:
[1] = target: T1, Farnesoid X Receptor (FXR) (Homo sapiens, UniProt Q96RI1); experiment: Yeast two-hybrid assay, hFXR agonist testing (FXR-LBD/SRC1 interaction, α-galactosidase); assay type: cell-based; details: DMSO = 1
T1 construct: Human FXRα-LBD (amino acids 200–473); expressed in transfected cells; host or cells: yeast strain AH109
T1 sequence (Q96RI1 214-486): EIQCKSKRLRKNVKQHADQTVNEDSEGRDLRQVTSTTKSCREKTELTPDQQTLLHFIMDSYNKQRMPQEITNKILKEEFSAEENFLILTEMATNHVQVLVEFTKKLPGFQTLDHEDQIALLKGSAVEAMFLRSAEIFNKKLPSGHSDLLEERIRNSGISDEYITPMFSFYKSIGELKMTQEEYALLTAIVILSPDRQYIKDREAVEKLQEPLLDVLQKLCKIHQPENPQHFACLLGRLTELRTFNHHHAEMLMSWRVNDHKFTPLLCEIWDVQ
From the text: (§1) Yeast two-hybrid system is a powerful tool for identifying potential agonist or antagonist of nuclear receptor based on the protein-protein interaction between nuclear receptor and its transcriptional co-activator[34]. Based on the predicted results through our systems pharmacology approach, the yeast two-hybrid system was set up according to a previous study[35] to test whether NSAIDs can modulate the activation of FXR. A series of NSAIDs with diverse chemical structures were collected and experimentally evaluated for their effects on the interaction between FXR and its co-activator SRC1. […] The previous studies reported an immune-mediated mechanism that is related to liver toxicity induced by oxicams and coxibs.
(§2) The yeast expression plasmids pGADT7 and pGBKT7 were from Clontech (Palo Alto, CA). Human FXRα-LBD (amino acids 200–473) was subcloned into vector pGBKT-7 using NdeI and BamHI restrict enzyme sites. The primers used for PCR amplification were listed as follows: FXRα-LBD (sense) 5′-[…]-3′, (anti-sense) 5′-[…]-3′. The combination plasmid pGADT7-SRC1 was prepared as described previously. The luciferase reporter plasmid pGL3-FXRE-Luc was generously donated by Dr. Majlis Hermansson (AstraZeneca R&D Mölndal, Sweden).
(§3) A yeast two-hybrid system for FXRα was constructed by yeast co-transformation with pGBKT7-FXR LBD and pGADT7-SRC1 according to manufacturer's protocols. […] 24 h later, we harvested the yeast cells and analyzed α-galactosidase activity using p-nitrophenyl α-D-galactopyranoside as the substrate.

[2] = target: T1, Farnesoid X Receptor (FXR); experiment: Yeast two-hybrid assay, FXR antagonist testing (compounds plus 10 μM CDCA); assay type: cell-based; details: for IC50: hFXR-LBD/SRC1, determined if inhibition at 10 μM > 50%
From the text: as §1, §2, §3

STAT3 = experiment: Western blot of STAT3 phosphorylation in HepG2 cells; assay type: cell-based; details: Figure 6A
Description: (§4) In subsequent experiments, we further investigated whether NSAIDs could induce STAT3 activation and suppress the expression of caspase9. […] The phosphorylated STAT3 was determined by western blot analysis. […] For STAT3 phosphorylation and caspase9 expression analysis, HepG2 cells were seeded in 6-well plates and then treated with varied compounds in serum-free DMEM media. After 24 h incubation, cells were washed twice with ice-cold phosphate buffered saline (PBS) and lysed in RIPA buffer including 5 mM NaF, 1 mM PMSF, 2 mM NaVO4 and protease inhibitor cocktail. Lysates were then centrifuged at 10,000 rpm for 10 min at 4°and the protein concentrations were determined by BCA assay. Whole cell extracts was resolved on 10% SDS-PAGE and transferred to polyvinylidene fluoride (PVDF) membrane. The membrane was blotted with antibodies against p-STAT3, total-STAT3, caspase9 and GAPDH, and then examined by ECL detection system according to the manufacturer's instructions (Amersham Pharmacia Biotech).

caspase9 = experiment: Western blot of caspase9 in HepG2 cells; assay type: cell-based; details: Figure 6B
Description: as §4

SHP = experiment: qRT-PCR of FXR target gene SHP in HepG2 cells
Description: The mRNA levels of the FXR target genes were quantified by qRT-PCR.
The data were carried out in at least three independent experiments.
HepG2 cells were cultured at 37°C in DMEM media supplemented with 10% FBS. And then cells were seeded into 6-well plates and grew to 80–90% confluence. After incubation with the test compounds for 24 h, cells were harvested and total RNA was isolated using Trizol reagent. The first single-strand cDNA was synthesized using reverse transcriptase kit. The qRT-PCR was performed using Bio-Rad CFX96^TM real time PCR system according to the manufacturer's instruction with specific primers for the FXR target gene SHP (forward 5′-[sequence]-3′, reverse 5′-[sequence]-3′), CYP7A1 (forward 5′- [sequence]-3′, reverse 5′- [sequence]-3′) for detection of the transcripts. Transcription levels were normalized to GAPDH mRNA levels (forward 5′- [sequence]-3′, reverse 5′- [sequence]-3′). The relative RNA quantities were calculated using the comparative threshold cycles (Ct) method. The Ct for the SHP, CYP7A1 and GAPDH signals were determined in triplicate experiments.

Row | Compound | FXR activation (10 μM) [1] | inhibition at 10 µM [2] [%] | IC50 ([2]; yeast two hybrid) [µM] | other results
1 | CS(=O)(=O)c1ccc(C2=C(c3ccccc3)C(=O)OC2)cc1 [Rofecoxib] | 1.18 | 39.9 | > 25 | 
2 | O=C(O)c1cc(-c2ccc(F)cc2F)ccc1O [Diflunisal] | 1.31 | 93.3 | 8.48 | 
3 | C[C@H](CCC(=O)O)[C@H]1CC[C@H]2[C@@H]3[C@H](O)C[C@@H]4C[C@H](O)CC[C@]4(C)[C@H]3CC[C@]12C [CDCA, chenodeoxycholic acid] |  |  |  | effect on indomethacin-induced STAT3 activation (STAT3; CDCA pretreatment): suppresses indomethacin-induced STAT3 activation; caspase9 levels on co-treatment with indomethacin (caspase9; co-treated with indomethacin and CDCA): substantially attenuated back to the normal level
4 | CN1C(C(=O)Nc2ccccn2)=C(O)c2ccccc2S1(=O)=O [Piroxicam] | 1.13 | 30.7 | > 25 | 
5 | COc1ccc2c(c1)c(CC(=O)O)c(C)n2C(=O)c1ccc(Cl)cc1 [Indomethacin] |  |  |  | STAT3 phosphorylation level (STAT3; western blot): significantly increases the STAT3 phosphorylation level; caspase9 expression (caspase9; western blot): significantly stimulates caspase9 expression in a dose-dependent manner; biological activity on genes SHP and CYP7A1 compared with ibuprofen (SHP): higher biological activity than ibuprofen
6 | CCCCC1C(=O)N(c2ccccc2)N(c2ccccc2)C1=O [Phenylbutazone] | 0.99 | 91.9 | 0.7 | FXR antagonist potency compared with guggulsterones (GS) ([2]; yeast two hybrid): more potent FXR antagonist than guggulsterones
